Broadly, the IC50 is the concentration that gives 50% inhibition. By Ki is commonly meant the dissociation constant of the complex between target and ligand, obtained from inhibition or displacement.

We go through 19 molecules from US11684616B2, “Azalactam compounds as HPK1 inhibitors” (PFIZER INC., priority 2020, dated 2023).

Experiment [1] concerns the target Human recombinant full-length GST-tagged PRKD2 (PKD2) (Homo sapiens (Human), UniProt Q9BZL6). In words: Biochemical selectivity kinase assay (Z'-LYTE FRET), PRKD2. Particulars: for IC50: 25 μM ATP (~Km); for PRKD2 IC50/HPK1 Ki: ratio of the PRKD2 IC50 to the HPK1 Ki. The text has this: (§1) Biochemical Selectivity Kinase Assay.
(§2) The dose response curve was curve fit to model number 205 (sigmoidal dose-response model). A ratio of the PRKD2 IC50 to the HPK1 Ki and a ratio of the RSK3 IC50 to the HPK1 Ki, is provided in the respective columns adjacent to the columns for PRKD2 IC50 and RSK3 IC50.

For experiment [2], the target named is Human recombinant full-length GST-tagged RPS6KA2 (RSK3) (Homo sapiens (Human), UniProt Q15349). Put plainly: Biochemical selectivity kinase assay (Z'-LYTE FRET), RSK3. The settings on record: for IC50: 10 μM ATP (~Km); for RSK3 IC50/HPK1 Ki: ratio of the RSK3 IC50 to the HPK1 Ki.
Human recombinant full-length GST-tagged RPS6KA2 (RSK3), sequence (Q15349 whole entry): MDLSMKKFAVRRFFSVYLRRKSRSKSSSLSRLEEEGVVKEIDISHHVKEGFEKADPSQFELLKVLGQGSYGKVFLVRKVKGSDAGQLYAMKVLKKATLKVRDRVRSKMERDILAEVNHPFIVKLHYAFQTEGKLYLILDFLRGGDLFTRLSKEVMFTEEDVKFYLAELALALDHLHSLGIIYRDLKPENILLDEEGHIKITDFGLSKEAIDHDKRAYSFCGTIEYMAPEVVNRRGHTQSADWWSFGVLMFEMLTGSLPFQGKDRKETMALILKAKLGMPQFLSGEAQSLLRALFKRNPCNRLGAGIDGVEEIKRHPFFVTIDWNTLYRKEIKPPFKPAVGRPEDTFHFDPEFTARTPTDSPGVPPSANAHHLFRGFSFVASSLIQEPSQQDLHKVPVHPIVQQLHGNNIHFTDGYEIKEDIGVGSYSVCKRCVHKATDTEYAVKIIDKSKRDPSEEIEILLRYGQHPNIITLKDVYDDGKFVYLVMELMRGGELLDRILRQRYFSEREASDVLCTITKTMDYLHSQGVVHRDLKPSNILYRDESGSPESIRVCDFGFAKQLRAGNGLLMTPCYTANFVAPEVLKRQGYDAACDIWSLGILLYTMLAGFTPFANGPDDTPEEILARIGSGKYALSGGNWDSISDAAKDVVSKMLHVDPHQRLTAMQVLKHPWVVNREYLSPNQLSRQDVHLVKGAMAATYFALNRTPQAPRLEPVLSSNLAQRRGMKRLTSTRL
Text: as §1, §2

For experiment [3], the target named is human full-length autophosphorylated recombinant HPK1 (Homo sapiens (Human), UniProt Q92918). Put plainly: HPK1 biochemical enzyme assay (chelation-enhanced fluorescence, CHEF). Particulars: 0.5 nM HPK1, 45 μM ATP, Morrison fit. A digest of the protocol: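 Autophosphorylated full-length human HPK1 from Sf21 cells, His-tag removed by TEV, residual N-terminal Gly-Ser. Activity measured with a C-Sox fluorescent peptide substrate (CHEF); initial velocities followed at λex 360/λem 500 nm, 30 °C for 15 min.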
human full-length autophosphorylated recombinant HPK1, sequence (Q92918 other isoform, or with tags, fused parts or gaps): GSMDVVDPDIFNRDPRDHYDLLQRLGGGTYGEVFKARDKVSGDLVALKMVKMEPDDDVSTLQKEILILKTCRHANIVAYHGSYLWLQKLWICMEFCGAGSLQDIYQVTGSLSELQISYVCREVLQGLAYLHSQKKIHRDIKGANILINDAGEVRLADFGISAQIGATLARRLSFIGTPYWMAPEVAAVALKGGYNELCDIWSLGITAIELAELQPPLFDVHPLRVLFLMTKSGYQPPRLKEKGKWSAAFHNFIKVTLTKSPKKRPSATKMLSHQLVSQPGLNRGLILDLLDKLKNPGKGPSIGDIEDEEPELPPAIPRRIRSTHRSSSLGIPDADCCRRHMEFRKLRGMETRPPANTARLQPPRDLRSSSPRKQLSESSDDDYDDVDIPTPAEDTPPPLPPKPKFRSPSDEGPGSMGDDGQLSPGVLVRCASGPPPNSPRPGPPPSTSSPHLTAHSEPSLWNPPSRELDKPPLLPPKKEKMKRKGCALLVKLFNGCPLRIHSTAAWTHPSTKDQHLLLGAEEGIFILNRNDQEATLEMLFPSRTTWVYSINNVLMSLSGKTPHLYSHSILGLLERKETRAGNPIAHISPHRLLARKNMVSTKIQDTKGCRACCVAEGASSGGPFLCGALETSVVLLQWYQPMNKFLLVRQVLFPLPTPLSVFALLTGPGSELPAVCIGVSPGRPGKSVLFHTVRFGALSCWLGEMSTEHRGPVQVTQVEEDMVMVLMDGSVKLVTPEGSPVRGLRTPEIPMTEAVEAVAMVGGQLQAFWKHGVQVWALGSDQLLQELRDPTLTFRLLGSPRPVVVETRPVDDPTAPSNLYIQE

For experiment [4], the system named is Phospho-SLP-76 (Ser376) in Jurkat cells. In words: Phospho-SLP-76 (Ser376) HTRF assay in anti-CD3 stimulated Jurkat cells. The class given is cell-based. Particulars: Homo sapiens, Jurkat, 30 min pre-treatment, anti-CD3 stimulation 15 min, read-out: pSLP76 IC50. The method in brief:
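Jurkat cells pre-treated 30 min with compound (11-point 3-fold series, final 10 μM to 0.1 nM, 0.1% DMSO), then stimulated 15 min at 37° C with 200 μg/mL F(ab)2-complexed anti-CD3 (UCTH1). Lysate phospho-SLP-76 read by HTRF sandwich after overnight RT incubation; IC50 from four-parameter fit.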
(Time-resolved FRET reads energy transfer from a long-lived donor to a nearby acceptor.)

Each structure is given as a SMILES string.

Human recombinant full-length GST-tagged PRKD2 (PKD2), sequence (Q9BZL6 whole entry): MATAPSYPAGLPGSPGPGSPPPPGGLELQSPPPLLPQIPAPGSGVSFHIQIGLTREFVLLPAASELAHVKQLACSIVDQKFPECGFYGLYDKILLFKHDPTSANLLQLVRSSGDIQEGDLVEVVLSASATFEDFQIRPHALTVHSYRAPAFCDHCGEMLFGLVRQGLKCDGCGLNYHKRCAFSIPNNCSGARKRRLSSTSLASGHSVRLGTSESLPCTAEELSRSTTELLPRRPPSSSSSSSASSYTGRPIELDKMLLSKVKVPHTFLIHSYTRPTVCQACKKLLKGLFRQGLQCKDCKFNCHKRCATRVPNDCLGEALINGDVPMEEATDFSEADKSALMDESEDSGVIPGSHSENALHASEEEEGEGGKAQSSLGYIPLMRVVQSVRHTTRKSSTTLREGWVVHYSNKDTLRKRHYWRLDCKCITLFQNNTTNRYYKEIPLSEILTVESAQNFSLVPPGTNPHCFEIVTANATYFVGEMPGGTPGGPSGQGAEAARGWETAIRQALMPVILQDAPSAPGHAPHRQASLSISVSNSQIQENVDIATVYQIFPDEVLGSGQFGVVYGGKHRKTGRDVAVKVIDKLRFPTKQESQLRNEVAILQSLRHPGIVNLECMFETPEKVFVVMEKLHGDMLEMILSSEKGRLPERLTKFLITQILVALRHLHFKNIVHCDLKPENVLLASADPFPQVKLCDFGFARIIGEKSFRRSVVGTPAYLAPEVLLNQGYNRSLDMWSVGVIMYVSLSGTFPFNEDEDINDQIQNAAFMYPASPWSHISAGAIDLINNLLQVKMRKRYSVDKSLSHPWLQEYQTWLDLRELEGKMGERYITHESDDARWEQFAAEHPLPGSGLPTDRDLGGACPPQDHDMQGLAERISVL

For the molecule `CC[C@@H](N)c1nc(N2CCC[C@H]2C)cc2c1CN(c1cccc(-c3nnc4n3[C@@H](C)CC4)n1)C2=O` [Example 1, 4-[(1R)-1-aminopropyl]-2-{6-[(5S)-5-methyl-6,7-dihydro-5H-pyrrolo[2,1-c][1,2,4]triazol-3-yl]pyridin-2-yl}-6-[(2R)-2-methylpyrrolidin-1-yl]-2,3-dihydro-1H-pyrrolo[3,4-c]pyridin-1-one], the IC50 in experiment [1] is 155 nM; in experiment [2] it was 47 nM.

`CC[C@H]1CCc2nnc(-c3cccc(N4Cc5c(cc(N6CCC[C@H]6C)nc5[C@@H](C)N)C4=O)n3)n21` [Example 2, 4-[(1R)-1-aminoethyl]-2-{6-[(5S)-5-ethyl-6,7-dihydro-5H-pyrrolo[2,1-c][1,2,4]triazol-3-yl]pyridin-2-yl}-6-[(2R)-2-methylpyrrolidin-1-yl]-2,3-dihydro-1H-pyrrolo[3,4-c]pyridin-1-one]: the inhibition constant (Ki) in experiment [3] was under 0.05 nM. In experiment [4], the IC50 was determined as 30 nM. Also, in experiment [1], the IC50 amounted to 116 nM and the “PRKD2 IC50/HPK1 Ki” value is over 2320. Also, in experiment [2], the IC50 is 21.3 nM and the “RSK3 IC50/HPK1 Ki” value is reported as over 420.

Regarding `CC[C@H]1CCc2nnc(-c3cccc(N4Cc5c(cc(N6CCC[C@H]6C)nc5[C@H](C)N)C4=O)n3)n21` [Example 3, 4-[(1S)-1-aminoethyl]-2-{6-[(5S)-5-ethyl-6,7-dihydro-5H-pyrrolo[2,1-c][1,2,4]triazol-3-yl]pyridin-2-yl}-6-[(2R)-2-methylpyrrolidin-1-yl]-2,3-dihydro-1H-pyrrolo[3,4-c]pyridin-1-one], the Ki in experiment [3] is under 0.05 nM. The IC50 in experiment [4] stood at 34 nM; in experiment [1], 6.54 nM; in experiment [2], 3.33 nM. Moreover, the “PRKD2 IC50/HPK1 Ki” value in experiment [1] was over 130. For the same molecule, in experiment [2], the “RSK3 IC50/HPK1 Ki” value is listed as over 66.

On to `CCN(C)c1cc2c(c(C(C)(C)N)n1)CN(c1cccc(-c3nncn3CC)n1)C2=O` [Example 124, 4-(2-aminopropan-2-yl)-6-[ethyl(methyl)amino]-2-[6-(4-ethyl-4H-1,2,4-triazol-3-yl)pyridin-2-yl]-2,3-dihydro-1H-pyrrolo[3,4-c]pyridin-1-one], for which, in experiment [3], the Ki came to 0.37 nM. The IC50 in experiment [4] was 98 nM.

As to `CCCn1cnnc1-c1cccc(N2Cc3c(cc(N(C)C)nc3C(C)(C)N)C2=O)n1` [Example 131, 4-(2-aminopropan-2-yl)-6-(dimethyl-amino)-2-[6-(4-propyl-4H-1,2,4-triazol-3-yl)pyridin-2-yl]-2,3-dihydro-1H-pyrrolo[3,4-c]pyridin-1-one], the Ki in experiment [3] stood at 1.02 nM. Also, the IC50 in experiment [4] was found to be 94 nM.

As to `CCn1cnnc1-c1cccc(N2Cc3c(cc(N(C)C)nc3C(C)(C)N)C2=O)n1` [Example 132, 4-(2-aminopropan-2-yl)-6-(dimethyl-amino)-2-[6-(4-ethyl-4H-1,2,4-triazol-3-yl)pyridin-2-yl]-2,3-dihydro-1H-pyrrolo[3,4-c]pyridin-1-one], in experiment [3], the Ki was 0.38 nM. Besides, the IC50 in experiment [4] amounted to 148 nM.

As for `CCCn1c(C)nnc1-c1cccc(N2Cc3c(cc(N4CCC[C@H]4C)nc3C(C)(C)N)C2=O)n1` [Example 133, 4-(2-aminopropan-2-yl)-2-[6-(5-methyl-4-propyl-4H-1,2,4-triazol-3-yl)pyridin-2-yl]-6-[(2R)-2-methylpyrroli-din-1-yl]-2,3-dihydro-1H-pyrrolo[3,4-c]pyridin-1-one], in experiment [3], the Ki came to 0.12 nM. Also, the IC50 in experiment [4] came to 95 nM.

On to `CCn1c(C)nnc1-c1cccc(N2Cc3c(cc(N4CCC[C@H]4C)nc3C(C)(C)N)C2=O)n1` [Example 134, 4-(2-aminopropan-2-yl)-2-[6-(4-ethyl-5-methyl-4H-1,2,4-triazol-3-yl)pyridin-2-yl]-6-[(2R)-2-methylpyrroli-din-1-yl]-2,3-dihydro-1H-pyrrolo[3,4-c]pyridin-1-one], for which, in experiment [3], the Ki came to 0.22 nM. In addition, the concentration for half-maximal inhibition (IC50) in experiment [4] is 106 nM.

In the case of `CCCn1c(C)nnc1-c1cccc(N2Cc3c(cc(N(C)C(C)C)nc3C(C)(C)N)C2=O)n1` [Example 139, 4-(2-amino-propan-2-yl)-6-[methyl (propan-2-yl)amino]-2-[6-(5-methyl-4-propyl-4H-1,2,4-triazol-3-yl)pyridin-2-yl]-2,3-dihydro-1H-pyrrolo[3,4-c]pyridin-1-one], the inhibition constant (Ki) in experiment [3] was determined as 0.27 nM. In addition, in experiment [4], the IC50 was 104 nM.

Take `CC[C@@H](N)c1nc(N2CCC[C@H]2C)cc2c1CN(c1cccc(-c3nncn3CC)n1)C2=O` [Example 140, 4-[(1R)-1-aminopropyl]-2-[6-(4-ethyl-4H-1,2,4-triazol-3-yl)pyridin-2-yl]-6-[(2R)-2-methylpyrroli-din-1-yl]-2,3-dihydro-1H-pyrrolo[3,4-c]pyridin-1-one]: the inhibition constant Ki in experiment [3] is under 0.07 nM. Further, the IC50 in experiment [4] was determined as 53 nM.

As for `CCCn1cnnc1-c1cccc(N2Cc3c(cc(N4CCC[C@H]4C)nc3[C@H](N)CC)C2=O)n1` [Example 144, 4-[(1R)-1-aminopropyl]-6-[(2R)-2-methylpyrroli-din-1-yl]-2-[6-(4-propyl-4H-1,2,4-triazol-3-yl)pyridin-2-yl]-2,3-dihydro-1H-pyrrolo[3,4-c]pyridin-1-one], in experiment [3], the Ki was found to be 0.11 nM. In addition, the IC50 in experiment [4] came out at 90 nM.

With `CC[C@@H]1CCc2nnc(-c3cccc(N4Cc5c(cc(N6CCC[C@H]6C)nc5CNC)C4=O)n3)n21` [Example 203, 2-{6-[(5R)-5-ethyl-6,7-dihydro-5H-pyrrolo[2,1-c] [1,2,4]triazol-3-yl]pyridin-2-yl}-4-[(methyl-amino)methyl]-6-[(2R)-2-methylpyrroli-din-1-yl]-2,3-dihydro-1H-pyrrolo[3,4-c] pyridin-1-one], the Ki in experiment [3] turned out to be 1.04 nM. Also, in experiment [4], the IC50 was 182 nM.

On to `CNCc1nc(N(C)C(C)C)cc2c1CN(c1cccc(-c3nnc4n3[C@@H](CF)CC4)n1)C2=O` [Example 205, 2-{6-[(5R)-5-(fluoromethyl)-6,7-dihydro-5H-pyrrolo[2,1-c][1,2,4]triazol-3-yl]pyridin-2-yl}-4-[(methyl-amino)methyl]-6-[methyl (propan-2-yl)amino]-2,3-dihydro-1H-pyrrolo[3,4-c] pyridin-1-one], for which the inhibitory constant (Ki) in experiment [3] is under 0.05 nM. Further, in experiment [4], the IC50 was determined as 52 nM.

For `CC[C@H]1CCc2nnc(-c3cccc(N4Cc5c(cc(N(C)C)nc5CNC)C4=O)n3)n21` [Example 206, 6-(dimethyl-amino)-2-{6-[(5S)-5-ethyl-6,7-dihydro-5H-pyrrolo[2,1-c] [1,2,4]triazol-3-yl]pyridin-2-yl}-4-[(methyl-amino)methyl]-2,3-dihydro-1H-pyrrolo[3,4-c] pyridin-1-one], the Ki in experiment [3] was 0.12 nM. Also, the IC50 in experiment [4] was determined as 78 nM.

As for `CNCc1nc(N(C)C)cc2c1CN(c1cccc(-c3nnc4n3[C@@H](C)CC4)n1)C2=O` [Example 208, 6-(dimethyl-amino)-4-[(methylamino)methyl]-2-{6-[(5S)-5-methyl-6,7-dihydro-5H-pyrrolo[2,1-c] [1,2,4]triazol-3-yl]pyridin-2-yl}-2,3-dihydro-1H-pyrrolo[3,4-c] pyridin-1-one], the Ki in experiment [3] is 0.6 nM. Also, in experiment [4], the IC50 stood at 85 nM.

As to `CNCc1nc(N(C)C(C)C)cc2c1CN(c1cccc(-c3nnc4n3[C@@H](C)CC4)n1)C2=O` [Example 210, 4-[(methyl-amino)methyl]-2-{6-[(5S)-5-methyl-6,7-dihydro-5H-pyrrolo[2,1-c] [1,2,4]triazol-3-yl]pyridin-2-yl}-6-[methyl (propan-2-yl)amino]-2,3-dihydro-1H-pyrrolo[3,4-c] pyridin-1-one], the inhibition constant Ki in experiment [3] is under 0.05 nM. The IC50 in experiment [4] was determined as 47 nM.

Consider `CNCc1nc(N(C)C(C)C)cc2c1CN(c1cccc(-c3nnc4n3[C@@H](C)C[C@@H]4C)n1)C2=O` [Example 211, 2-{6-[(5S,7S)-5,7-dimethyl-6,7-dihydro-5H-pyrrolo[2,1-c] [1,2,4]triazol-3-yl]pyridin-2-yl}-4-[(methyl-amino)methyl]-6-[methyl (propan-2-yl)amino]-2,3-dihydro-1H-pyrrolo[3,4-c] pyridin-1-one], for which the inhibitory constant (Ki) in experiment [3] is under 0.05 nM. Also, the IC50 in experiment [4] came out at 78 nM.

As for `CNCc1nc(N(C)C(C)C)cc2c1CN(c1cccc(-c3nnc4n3[C@@H](C)C[C@H]4C)n1)C2=O` [Example 212, 2-{6-[(5S,7R)-5,7-dimethyl-6,7-dihydro-5H-pyrrolo[2,1-c] [1,2,4]triazol-3-yl]pyridin-2-yl}-4-[(methyl-amino)methyl]-6-[methyl (propan-2-yl)amino]-2,3-dihydro-1H-pyrrolo[3,4-c] pyridin-1-one], the Ki in experiment [3] turned out to be 0.32 nM. Moreover, the IC50 in experiment [4] is 159 nM.

With `CCCn1cnnc1-c1cccc(N2Cc3c(cc(N(C)C)nc3CNC)C2=O)n1` [Example 300, 6-(dimethylamino)-4-[(methylamino)methyl]-2-[6-(4-propyl-4H-1,2,4-triazol-3-yl)pyridin-2-yl]-2,3-dihydro-1H-pyrrolo[3,4-c]pyridin-1-one], the IC50 in experiment [4] came out at 94 nM. Also, in experiment [1], the IC50 amounted to 1.93 nM and the “PRKD2 IC50/HPK1 Ki” value worked out at 14. In addition, in experiment [2], the IC50 came to 6.26 nM and the “RSK3 IC50/HPK1 Ki” value is reported as 23.
